One data set has as its target human GPR40 receptor (Homo sapiens, UniProt O14842). As to the kind of experiment: IP1 accumulation measurements using the IPOne assay system. Particulars: 1321N1 cells stably expressing human GPR40 receptor, stimulation 1 h at 37° C. The data set is classed as cell-based. The protocol: IP1 accumulation measurements using the IPOne assay system—1321N1 cells stably expressing human GPR40 receptor (Euroscreen, Belgium) are seeded 24 h before the assay in white 384-well plates in culture medium containing 10% FCS, 1% Na-Pyruvate and 400 μg/mL G418. IPi is assayed according to the manufacturer's description (Cisbio Bioassays, France). In brief, the assay is started by substitution of the culture medium by stimulation buffer (Hepes 10 mM, CaCl2 1 mM, MgCl2 0.5 mM, KCl 4.2 mM, NaCl 146 mM, glucose 5.5 mM and LiCl 50 mM, pH 7.4). Cells are stimulated for 1 h at 37° C., 5% CO2 by addition of the compounds that are diluted in stimulation buffer containing LiCl. Assays are stopped by adding HTRF-conjugates (IP1-d2 and Anti-IP1 cryptate Tb) and lysis buffer, provided by the manufacturer. After an incubation time of 1 h at room temperature plates are measured using an EnVision™, Perkin Elmer. The obtained fluorescence ratios at 665/615 […] are then used to calculate the pEC50 values using Assay Explorer 3.3 Software (Accelrys, Inc.) by interpolation using an IP1 reference curve and subsequent sigmoidal curve fitting allowing for a variable hill slope.

Data set [1] can be described thus: Aqueous solubility in buffer versus acetonitrile/water (1/1), LC-UV. The data set is classed as physicochemical. The note with it: kinetic from dmso stock, buffer pH 2.2, 24 h shaking, 2.5% DMSO, ">" if more than 90% dissolved. The procedure: The aqueous solubility of the compounds of the invention is determined by comparing the amount dissolved in buffer to the amount in an acetonitrile/water (1/1) solution. Starting from a 10 mM DMSO stock solution aliquots are diluted with acetonitrile/water (1/1) or buffer, respectively. After 24 h of shaking, the solutions are filtrated and analyzed by LC-UV. The amount dissolved in buffer is compared to the amount in the acetonitrile solution.
Solubility is usually being measured from 0.001 to 0.125 mg/mL at a DMSO concentration of 2.5%. If more than 90% of the compound is dissolved in buffer, the value is marked with “>”.

Values after ≈ are worked out from the molar mass of the structure shown.

The source of these data is US10538490B2, “Benzylaminopyridylcyclopropanecarboxylic acids, pharmaceutical compositions and uses thereof” (Boehringer Ingelheim International GmbH, priority 2016, dated 2020).

Chain of human GPR40 receptor (O14842 whole entry): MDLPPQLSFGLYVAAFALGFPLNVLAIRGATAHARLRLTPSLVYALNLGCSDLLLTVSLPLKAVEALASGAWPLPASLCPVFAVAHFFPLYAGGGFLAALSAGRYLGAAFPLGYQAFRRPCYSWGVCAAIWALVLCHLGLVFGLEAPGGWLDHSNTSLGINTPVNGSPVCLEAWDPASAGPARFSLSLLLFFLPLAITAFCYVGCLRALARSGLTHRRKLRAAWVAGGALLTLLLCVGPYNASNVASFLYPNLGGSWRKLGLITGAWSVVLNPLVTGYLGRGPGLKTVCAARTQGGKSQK

One may read the EC50 as the concentration that produces a half-maximal response. The low end stands for an effect from little substance, the high end for a need for much substance. A word on the solubility: it is how much of the substance goes into solution per volume. `Cc1cc(OCCC(C)(C)O)cc(C)c1-c1ccc(F)c(CNc2ccc([C@H]3C[C@@H]3C(=O)O)cn2)c1` [Example 1]: the response at human GPR40 receptor was half-maximal at 45 nM (EC50). Moreover, the solubility at 24 h in data set [1] is 87 µg/mL (≈ 177 µM).

The compound `Cc1cc(OCCC(C)(C)O)cc(C)c1-c1cc(CNc2ccc([C@H]3C[C@@H]3C(=O)O)cn2)c(F)cc1F` [Example 2] gave a half-maximal effective concentration (EC50) at human GPR40 receptor of 42 nM. Further, the concentration in solution in data set [1] (solubility at 24 h) came to 83 µg/mL (≈ 163 µM).

At human GPR40 receptor, `O=C(O)[C@H]1C[C@@H]1c1ccc(NCc2ccc(C(F)(F)F)c(-c3ccc(OCC4CC4)cc3)c2)nc1` [Example 7, (1S,2S)-2-{6-[(4′-Cyclopropylmethoxy-6-trifluoromethyl-biphenyl-3-ylmethyl)-amino]-pyridin-3-yl}-cyclopropanecarboxylic acid] had a half-maximal effective concentration (EC50) of 34 nM. Further, the concentration in solution in data set [1] (solubility at 24 h) was 30 µg/mL (≈ 62.2 µM).

The compound `Cc1ccc(Cl)c(-c2ccc(F)c(CNc3ccc([C@H]4C[C@@H]4C(=O)O)cn3)c2)c1Cl` [Example 25] had an EC50 at human GPR40 receptor of 41 nM. Also, the solubility at 24 h in data set [1] was 83 µg/mL (≈ 186 µM).

The compound `COc1cc(C)c(-c2ccc(F)c(CNc3ccc([C@H]4C[C@@H]4C(=O)O)cn3)c2)c(C)c1` [Example 26] came in with an EC50 on human GPR40 receptor of 79 nM. The solubility at 24 h in data set [1] came to 91 µg/mL (≈ 216 µM).

In turn, `COc1cc(OC)c(-c2ccc(F)c(CNc3ccc([C@H]4C[C@@H]4C(=O)O)cn3)c2)c(OC)c1` [Example 30] had a 50% effective concentration (EC50) at human GPR40 receptor of 877 nM. In data set [1], the solubility at 24 h is 112 µg/mL (≈ 248 µM).

As to `Cc1cc(OC2CCOCC2)cc(C)c1-c1cc(CNc2ccc([C@H]3C[C@@H]3C(=O)O)cn2)c(F)cc1F` [Example 84], the response at human GPR40 receptor was half-maximal at 57 nM (EC50).

`Cc1cc(-c2cc(=O)n(C)cn2)cc(C)c1-c1cc(CNc2ccc([C@H]3C[C@@H]3C(=O)O)cn2)c(F)cc1F` [Example 85] returned an EC50 on human GPR40 receptor of 25 nM.

Compound `Cc1cc(-c2ccn(C)c(=O)c2)cc(C)c1-c1cc(CNc2ccc([C@H]3C[C@@H]3C(=O)O)cn2)c(F)cc1F` [Example 86] had a half-maximal effective concentration (EC50) on human GPR40 receptor of 29 nM.

On human GPR40 receptor, `Cc1cc(OCC2(C)COC2)cc(C)c1-c1cc(CNc2ccc([C@H]3C[C@@H]3C(=O)O)cn2)c(F)cc1F` [Example 87] came in with a concentration giving a half-maximal response (EC50) of 89 nM.

`Cc1cc(OCC(C)(C)C#N)cc(C)c1-c1cc(CNc2ccc([C@H]3C[C@@H]3C(=O)O)cn2)c(F)cc1F` [Example 88]: the 50% effective concentration (EC50) on human GPR40 receptor came out at 81 nM.

At human GPR40 receptor, `Cc1cc(OCc2ccccc2)cc(C)c1-c1cc(CNc2ccc([C@H]3C[C@@H]3C(=O)O)cn2)c(F)cc1F` [Example 89] had a half-maximal effective concentration (EC50) of 65 nM.

For the compound `Cc1cc(-c2ccn(C)c(=O)n2)cc(C)c1-c1cc(CNc2ccc([C@H]3C[C@@H]3C(=O)O)cn2)c(F)cc1F` [Example 91], on human GPR40 receptor, the EC50 turned out to be 43 nM.

In the case of `COc1cc(OC)c(F)c(-c2cc(CNc3ccc([C@H]4C[C@@H]4C(=O)O)cn3)c(F)cc2F)c1F` [Example 94], the midpoint of the response at human GPR40 receptor, the EC50, lay at 1320 nM.

In turn, `CC(C)c1ccccc1-c1cc(CNc2ccc([C@H]3C[C@@H]3C(=O)O)cn2)c(F)cc1F` [Example 96] showed an EC50 at human GPR40 receptor of 114 nM.

At human GPR40 receptor, `Cc1cc(OCC2(O)CCSCC2)cc(C)c1-c1cc(CNc2ccc([C@H]3C[C@@H]3C(=O)O)cn2)c(F)cc1F` [Example 98] registered a concentration for a half-maximal effect (EC50) of 102 nM.

`Cc1cc(OCC2(O)CCS(=O)(=O)CC2)cc(C)c1-c1cc(CNc2ccc([C@H]3C[C@@H]3C(=O)O)cn2)c(F)cc1F` [Example 100] showed a concentration for a half-maximal effect (EC50) at human GPR40 receptor of 101 nM.

At human GPR40 receptor, `Cc1cc(OCC2CCOCC2)cc(C)c1-c1cc(CNc2ccc([C@H]3C[C@@H]3C(=O)O)cn2)c(F)cc1F` [Example 101] displayed an EC50 of 39 nM.

On to `CNC(=O)c1cc(C)c(-c2cc(CNc3ccc([C@H]4C[C@@H]4C(=O)O)cn3)c(F)cc2F)c(C)c1` [Example 102], for which the EC50 at human GPR40 receptor worked out at 420 nM.

At human GPR40 receptor, `Cc1cc(C(=O)N(C)C)cc(C)c1-c1cc(CNc2ccc([C@H]3C[C@@H]3C(=O)O)cn2)c(F)cc1F` [Example 103] gave a 50% effective concentration (EC50) of 462 nM.

As for `Cc1cc(-c2nnn(C)n2)cc(C)c1-c1ccc(F)c2c1CC[C@H]2Oc1ccc([C@H]2C[C@@H]2C(=O)O)cc1` [WO 2013/178575 Example 45, reference compound], in data set [1], the solubility at 24 h is < 1 µg/mL.
